Where “and” joins values, the source holds several entries; their conditions need not be identical. Identical values can stand only once. Entries after “also recorded” stand apart in the source; their conditions may differ.

The target of one experiment is T1, ING3 PHD finger (Homo sapiens, UniProt Q9NXR8).
T1 construct: The ING3 PHD finger region (residues 360–409) was amplified using PCR; GST (N, cleaved yes); made in house; host or cells: Escherichia coli Rosetta 2(DE3)pLysS
As to the kind of experiment: Tryptophan fluorescence titration of ING3 PHD finger with histone peptides. Particulars: 25 °C, 100 mM NaPO4 pH 7.5, 150 mM NaCl, 1 mM DTT, 10 μM ING3 PHD; average of three titrations; read-out: Trp fluorescence KD. The format is binding. As for the experimental part:
Tryptophan fluorescence spectra of samples in tryptophan fluorescence buffer (100 mM NaPO4, pH 7.5, 150 mM NaCl, and 1 mM DTT) were collected at 25 °C using a Cary Eclipse fluorescence spectrometer (Varian). The samples contained 10 μM ING3 PHD finger protein and progressively increasing concentrations of histone H3 and H4 peptides. The 12- and 14-mer unlabeled histone tail peptides with an amidated C terminus and specific methylation modifications (H3K4me3, H3K4me2, H3K4me1, H3 unmodified, and H4 unmodified) were synthesized by the Peptide Core Facility at the University of Colorado at Denver. After excitation at 295 nm, emission spectra were recorded between 305 and 405 nm with 0.5-nm increments and at a 1-s integration time, averaging over three scans. Each titration experiment was repeated three times, and the average KD values were calculated using quadratic Equation 1, [drawing 1] where Fi is the fluorescence change; Fs is the fluorescence change at saturation of XT (the total protein concentration); and YT is the peptide concentration.

Experiment [1] deals with T2, wild-type ING3 PHD finger (Homo sapiens, UniProt Q9NXR8).
T2 construct: The ING3 PHD finger region (residues 360–409) was amplified using PCR; GST (N, cleaved yes); made in house; host or cells: Escherichia coli Rosetta 2(DE3)pLysS
The experiment is described as follows: ITC of wild-type ING3 PHD finger with histone peptides. The format is binding. Particulars: for Kd / ITC KD: wild-type ING3 PHD, 5 °C, 20 mM NaH2PO4 pH 7.0, 150 mM NaCl, triplicate, non-binding in duplicate. As for the experimental part:
(§1) ITC measurements were recorded at 5 °C using a MicroCal iTC200 (GE Healthcare) as described previously ([55]). The wild-type and mutant ING3PHD proteins and histone peptide samples were prepared in a 20 mM NaH2PO4, pH 7.0, and 150 mM NaCl ITC buffer by dialysis for 24–48 h. Titration experiments were set up for optimal heat of binding reactions by using 100–200 μM ING3PHD in the sample cell, and between 1 and 5 mM histone peptide in the injection syringe. Control experiments were performed under identical conditions to determine the heat of dilution of the titrant peptides into the experimental buffer. This was subtracted from the experimental data as part of data analysis. Data were analyzed using the software ORIGIN 7.0 (OriginLab Corp.).

For a further experiment, the target named is T3, ING3 PHD D26H (Homo sapiens, UniProt Q9NXR8, D380H).
T3 construct: The ING3 PHD finger region (residues 360–409) was amplified using PCR; GST (N, cleaved yes); made in house; host or cells: Escherichia coli Rosetta 2(DE3)pLysS
As to the kind of experiment: ITC of ING3 PHD mutant with H3K4me3 peptide. The format is binding. Particulars: 5 °C, pH 7.0, triplicate.
From the text: (§2) The ING3 PHD finger region (residues 360–409) was amplified using PCR and cloned into the pDEST15 vector encoding an N-terminal glutathione transferase (GST) tag using the Gateway cloning technology (Invitrogen) as described previously ([55]). ING3PHD proteins with single mutations at W31A, W47A, S15A, P43A, Y8A, and D26H were generated using the QuikChange® mutagenesis procedure (Stratagene) as described previously ([56]). The DNA sequence for wild-type and mutant proteins was verified at the University of Vermont DNA facility, and the plasmids were transformed into in Escherichia coli Rosetta^TM 2(DE3)pLysS competent cells (Novagen) for protein expression.
as §1, with “Corp.). All experiments where binding occurred were performed in triplicate, whereas non-binding experiments were performed in duplicate.” for “Corp.).”

A further experiment has as its target T4, ING3 PHD P43A (Homo sapiens, UniProt Q9NXR8, P397A).
T4 construct: The ING3 PHD finger region (residues 360–409) was amplified using PCR; GST (N, cleaved yes); made in house; host or cells: Escherichia coli Rosetta 2(DE3)pLysS
As to the kind of experiment: ITC of ING3 PHD mutant with H3K4me3 peptide. The format is binding.
From the text: as §2
as §1, with “Corp.). All experiments where binding occurred were performed in triplicate, whereas non-binding experiments were performed in duplicate.” for “Corp.).”

The target in a further experiment is T5, ING3 PHD S15A (Homo sapiens, UniProt Q9NXR8, S369A).
T5 construct: The ING3 PHD finger region (residues 360–409) was amplified using PCR; GST (N, cleaved yes); made in house; host or cells: Escherichia coli Rosetta 2(DE3)pLysS
As to the kind of experiment: ITC of ING3 PHD mutant with H3K4me3 peptide. The experiment is classed as binding.
From the text: as §2
as §1, with “Corp.). All experiments where binding occurred were performed in triplicate, whereas non-binding experiments were performed in duplicate.” for “Corp.).”

Another experiment concerns the target T6, ING3 PHD W47A (Homo sapiens, UniProt Q9NXR8, W401A).
T6 construct: The ING3 PHD finger region (residues 360–409) was amplified using PCR; GST (N, cleaved yes); made in house; host or cells: Escherichia coli Rosetta 2(DE3)pLysS
The experiment is described as follows: ITC of ING3 PHD mutant with H3K4me3 peptide. The format is binding. Particulars: 5 °C, pH 7.0, triplicate.
From the text: as §2
as §1, with “Corp.). All experiments where binding occurred were performed in triplicate, whereas non-binding experiments were performed in duplicate.” for “Corp.).”

The next experiment has as its target T7, ING3 PHD Y8A (Homo sapiens, UniProt Q9NXR8, Y362A).
T7 construct: The ING3 PHD finger region (residues 360–409) was amplified using PCR; GST (N, cleaved yes); made in house; host or cells: Escherichia coli Rosetta 2(DE3)pLysS
The experiment is described as follows: ITC of ING3 PHD mutant with H3K4me3 peptide. The format is binding. Particulars: 5 °C, pH 7.0, triplicate.
From the text: as §2
as §1, with “Corp.). All experiments where binding occurred were performed in triplicate, whereas non-binding experiments were performed in duplicate.” for “Corp.).”

In the next experiment the target is T8, ING3 PHD W31A (Homo sapiens, UniProt Q9NXR8, W385A).
T8 construct: The ING3 PHD finger region (residues 360–409) was amplified using PCR; GST (N, cleaved yes); made in house; host or cells: Escherichia coli Rosetta 2(DE3)pLysS
The experiment is described as follows: ITC of ING3 PHD mutant with H3K4me3 peptide. Particulars: 5 °C, pH 7.0, non-binding in duplicate.
From the text: as §2
as §1, with “This was subtracted from the experimental data as part of data analysis.” left out, “Corp.). […]” for “Corp.).”

Experiment [2] addresses T9, 15N-labeled ING3 PHD finger (Homo sapiens, UniProt Q9NXR8).
T9 construct: The ING3 PHD finger region (residues 360–409) was amplified using PCR; GST (N, cleaved yes); made in house; host or cells: Escherichia coli Rosetta 2(DE3)pLysS
As to the kind of experiment: 1H-15N HSQC NMR chemical shift perturbation. The format is binding. Particulars: 0.5 mM ING3 PHD, 20 mM Tris-HCl pH 6.8, 150 mM NaCl, 10 mM DTT, 25 °C; protein:peptide up to 1:2.61. On the procedure:
Chemical shift perturbation experiments were conducted using 0.5 mM uniformly ^15N-labeled ING3 PHD finger in buffer containing 20 mM Tris-HCl, pH 6.8, 150 mM NaCl, 10 mM DTT, and 10% D2O. Titration mixtures of the ING3PHD protein and each of the modified histone peptides were prepared at concentration ratios of 1:0, 1:0.13, 1:0.26, 1:0.52, 1:1.3, and 1:2.61 in a volume of 35 μl. These mixtures were then transferred into 1.7-mm NMR tubes (Bruker).
Two-dimensional ^15N HSQC (heteronuclear single quantum coherence) experiments for all samples were run at 25 °C on a 600 MHz Bruker AVANCE III spectrometer equipped with a z-gradient 1.7-mm TCI probe at the National Magnetic Resonance Facility at Madison (NMRFAM) using the NMRBot software ([57]). The NMR data were collected with 1024 × 128 complex data points along the ^1H and ^15N dimensions, with acquisition times of 104 and 81 ms, respectively, using eight scans per free induction decay. Normalized chemical shift changes were calculated using Equation 2, [drawing 2] where ΔδH and ΔδN are the proton and nitrogen change in chemical shift in ppm, respectively.

T5 sequence (Q9NXR8 360-409 S369A): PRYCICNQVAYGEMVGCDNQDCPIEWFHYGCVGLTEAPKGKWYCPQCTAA
T2 sequence (Q9NXR8 360-409): as the sequence (Q9NXR8 360-409 S369A) above, with A10S counted along it
T1 sequence (Q9NXR8 360-409): as the sequence (Q9NXR8 360-409 S369A) above, with A10S counted along it
T9 sequence (Q9NXR8 360-409): as the sequence (Q9NXR8 360-409 S369A) above, with A10S counted along it
T4 sequence (Q9NXR8 360-409 P397A): as the sequence (Q9NXR8 360-409 S369A) above, with A10S, P38A counted along it
T8 sequence (Q9NXR8 360-409 W385A): as the sequence (Q9NXR8 360-409 S369A) above, with A10S, W26A counted along it
T7 sequence (Q9NXR8 360-409 Y362A): as the sequence (Q9NXR8 360-409 S369A) above, with Y3A, A10S counted along it
T3 sequence (Q9NXR8 360-409 D380H): as the sequence (Q9NXR8 360-409 S369A) above, with A10S, D21H counted along it
T6 sequence (Q9NXR8 360-409 W401A): as the sequence (Q9NXR8 360-409 S369A) above, with A10S, W42A counted along it

As usually defined, the Kd is the free concentration of one partner at which half of the binding sites on the other are occupied at equilibrium, for simple one-to-one binding. On to `C[C@H](N)C(=O)N[C@@H](CCCNC(=N)N)C(=O)N[C@H](C(=O)N[C@@H](CCCC[N+](C)(C)C)C(=O)N[C@@H](CCC(N)=O)C(=O)N[C@H](C(=O)N[C@@H](C)C(=O)N[C@@H](CCCNC(=N)N)C(=O)N[C@@H](CCCCN)C(=O)N[C@@H](CO)C(=O)N[C@H](C(=O)NCC(N)=O)[C@@H](C)O)[C@@H](C)O)[C@@H](C)O` [H3K4me3], for which the equilibrium dissociation constant (Kd) at ING3 PHD finger is 0.63 ± 0.11 µM; in [1] it was 0.93 ± 0.04 µM; on ING3 PHD D26H, 1.93 ± 0.26 µM; on ING3 PHD P43A (5 °C, pH 7.0, triplicate) it was 2.45 ± 0.27 µM; on ING3 PHD S15A (5 °C, pH 7.0, triplicate), 1.5 ± 0.01 µM; at ING3 PHD W47A, 48.31 ± 0.23 µM. In addition, at ING3 PHD Y8A, binding was characterised by a dissociation constant (Kd) of 46 ± 2.99 µM. For the same compound, in experiment [1] (abstract, method not specified (Trp fluorescence and ITC)), the “association stronger than with the unmodified histone H3” value is given as “about 200 fold”. The “drop in binding affinity versus WT” value was 2–3 fold at ING3 PHD P43A (ITC); 2–3 fold and 2 fold on ING3 PHD S15A (ITC). Besides, the “ITC KD” value at ING3 PHD W31A is reported as “no recognition of this ligand; also recorded: No binding”. Also, the “chemical shift perturbations in 1H-15N HSQC upon addition of peptide” value (“chemical shift perturbations” for short) in experiment [2] is “Chemical shift perturbations were induced”.

In the case of `CNCCCC[C@H](NC(=O)[C@@H](NC(=O)[C@H](CCCNC(=N)N)NC(=O)[C@H](C)N)[C@@H](C)O)C(=O)N[C@@H](CCC(N)=O)C(=O)N[C@H](C(=O)N[C@@H](C)C(=O)N[C@@H](CCCNC(=N)N)C(=O)N[C@@H](CCCCN)C(=O)N[C@@H](CO)C(=O)N[C@H](C(=O)NCC(N)=O)[C@@H](C)O)[C@@H](C)O` [H3K4me1], the Kd on ING3 PHD finger was 21.4 ± 3.51 µM; in [1] it was 23.2 ± 0.8 µM. Also, the “chemical shift perturbations” value in experiment [2] was “Chemical shift perturbations were induced”.

For `C[C@H](N)C(=O)N[C@@H](CCCNC(=N)N)C(=O)N[C@H](C(=O)N[C@@H](CCCCN)C(=O)N[C@@H](CCC(N)=O)C(=O)N[C@H](C(=O)N[C@@H](C)C(=O)N[C@@H](CCCNC(=N)N)C(=O)N[C@@H](CCCCN)C(=O)N[C@@H](CO)C(=O)N[C@H](C(=O)NCC(N)=O)[C@@H](C)O)[C@@H](C)O)[C@@H](C)O` [H3 unmodified], the Kd on ING3 PHD finger worked out at 132 ± 13.5 µM; in experiment [1], 181 ± 19.2 µM. For the same compound, the “chemical shift perturbations” value in experiment [2] is “Chemical shift perturbations were induced”.

Turning to “GKGGKGLGKGGAKR [H4 unmodified, unmodified histone H4 tail peptide residues 4–17, amidated C terminus]”, the “ITC KD” value in experiment [1] is recorded as “No binding was observed”; in [1] (listed as H4 unmodified(4–17)) it was “No binding”. Besides, the “chemical shift perturbations” value in experiment [2] is recorded as “No significant resonance shifts”.

`C[C@H](N)C(=O)N[C@@H](CCCNC(=N)N)C(=O)N[C@H](C(=O)N[C@@H](CCCCN(C)C)C(=O)N[C@@H](CCC(N)=O)C(=O)N[C@H](C(=O)N[C@@H](C)C(=O)N[C@@H](CCCNC(=N)N)C(=O)N[C@@H](CCCCN)C(=O)N[C@@H](CO)C(=O)N[C@H](C(=O)NCC(N)=O)[C@@H](C)O)[C@@H](C)O)[C@@H](C)O` [H3K4me2]: the results for the Kd (on ING3 PHD finger; in experiment [1]) were 4.05 ± 0.53 µM and 2.99 ± 0.33 µM, respectively. Also, in experiment [2], the “chemical shift perturbations” value is on record as “Chemical shift perturbations were induced”.

The values are drawn from PMC5000080, “Mechanism of Histone H3K4me3 Recognition by the Plant Homeodomain of Inhibitor of Growth 3” (The Journal of Biological Chemistry, 2016).
